Measurements taken from article PMC6504579 (Journal of immunology (Baltimore, Md. : 1950), 2019).
Like-named read-outs stand apart in the source and are kept apart here.

Format: in vitro ADME, human
Conditions: for ATK9 epitope produced (share of degradation products): representative donor; for degradation rate of substrate in CD3/CD28-stimulated vs non-stimulated extracts: paired CD4 T cell cytosolic extracts, 37 °C, pH 7.4, LC-MS/MS; for time of peak production of N-extended TW10 precursors: sampled at 2, 5 and 8 h
[1] = CD3/CD28-stimulated extract, 120 min
[2] = CD3/CD28-stimulated extract, 180 min
[3] = non-stimulated extract, 120 min
[4] = non-stimulated extract, 180 min

CC[C@H](C)[C@H](NC(=O)[C@H](C)NC(=O)[C@@H]1CCCN1C(=O)[C@H](CO)NC(=O)CNC(=O)[C@H](CCCCN)NC(=O)[C@@H](N)Cc1c[nH]c2ccccc12)C(=O)N[C@@H](Cc1ccccc1)C(=O)N[C@@H](CCC(N)=O)C(=O)N[C@@H](CO)C(=O)N[C@@H](CO)C(=O)N[C@@H](CCSC)C(=O)N[C@H](C(=O)N[C@@H](CCCCN)C(=O)N[C@H](C(=O)N[C@@H](CC(C)C)C(=O)O)[C@@H](C)CC)[C@@H](C)O [5-ATK9–2]
antitopes produced (share of degradation products) [1]: 66.43%
ATK9 epitope produced (share of degradation products) [1]: 0.49%
antitopes produced (share of degradation products) [2]: 79.38%
ATK9 epitope produced (share of degradation products) [2]: 0.54%
antitopes produced (share of degradation products) [3]: 48.1%
ATK9 epitope produced (share of degradation products) [3]: 1.05%
antitopes produced (share of degradation products) [4]: 57.7%
ATK9 epitope produced (share of degradation products) [4]: 1.06%
degradation rate of substrate in CD3/CD28-stimulated vs non-stimulated extracts: degraded faster

CC[C@H](C)[C@H](NC(=O)[C@H](CCC(N)=O)NC(=O)[C@H](CCC(=O)O)NC(=O)[C@H](CCC(N)=O)NC(=O)[C@H](CC(C)C)NC(=O)[C@@H](NC(=O)[C@H](CO)NC(=O)[C@@H](NC(=O)[C@@H](NC(=O)CNC(=O)[C@H](C)NC(=O)[C@@H](NC(=O)[C@@H](N)CC(=O)O)[C@@H](C)CC)[C@@H](C)O)[C@@H](C)O)[C@@H](C)O)C(=O)NCC(=O)N[C@@H](Cc1c[nH]c2ccccc12)C(=O)N[C@@H](CCSC)C(=O)N[C@H](C(=O)N[C@@H](CC(N)=O)C(=O)O)[C@@H](C)O [5-TW10–3]
time of peak production of N-extended TW10 precursors (activated extracts): 2 h
time of peak production of N-extended TW10 precursors (extracts from resting CD4 T cells): 5 h
degradation rate of substrate in CD3/CD28-stimulated vs non-stimulated extracts: faster degradation rates
detection of optimal TW10 at 2, 5 and 8 hours (paired resting and activated extracts): only in activated extracts
